Conditions: 323.15 K, Liquid, Vibrating tube method

CCCCCC(=O)OCC(COC(=O)CCCCC)(COC(=O)CCCCC)COC(=O)CCCCC [pentaerythritol tetrahexanoate]
Conditions | mass density [kg/m3]
616.8 kPa | 973.1
618.6 kPa | 973.1
620.6 kPa | 973.1
623.1 kPa | 973.3
625.3 kPa | 973.2
627.3 kPa | 973.1
629.2 kPa | 973.2
631.2 kPa | 973.1
633 kPa | 973.1
634.7 kPa | 973.1
637.3 kPa | 973.1
639.4 kPa | 973.1
641.7 kPa | 973
643.9 kPa | 973
659.4 kPa | 973.1
662 kPa | 973.2
664.3 kPa | 973.2
666.7 kPa | 973.1
668.8 kPa | 973.2
671.2 kPa | 973.2
674 kPa | 973.1
675.9 kPa | 973.1
678.5 kPa | 973.1
681.8 kPa | 973.2
684.1 kPa | 973.2
699.5 kPa | 973.1
702.1 kPa | 973.1
704.4 kPa | 973.1
707.2 kPa | 973.2
709.1 kPa | 973.2
712 kPa | 973.1
741.4 kPa | 973.1
744 kPa | 973.3
746.6 kPa | 973.1
749.6 kPa | 973.2
752.5 kPa | 973.1
755.1 kPa | 973.3
757.9 kPa | 973.2
760.3 kPa | 973.2
765.9 kPa | 973.2
768.5 kPa | 973.2
772.1 kPa | 973.2
774.9 kPa | 973.1
777.5 kPa | 973.3
780 kPa | 973.2
783.1 kPa | 973.2
785.3 kPa | 973.1
788.3 kPa | 973.3
791.4 kPa | 973.2
794.4 kPa | 973.2
796 kPa | 973.2
798.4 kPa | 973.3
815.2 kPa | 973.3
817.7 kPa | 973.3
821 kPa | 973.3
824.1 kPa | 973.4
827.1 kPa | 973.3
830.2 kPa | 973.2
833.5 kPa | 973.3
836.8 kPa | 973.2
839.5 kPa | 973.3
842.8 kPa | 973.2
845.5 kPa | 973.2
849.1 kPa | 973.3
851.9 kPa | 973.2
855.5 kPa | 973.3
871.5 kPa | 973.2
875.2 kPa | 973.2
877.8 kPa | 973.2
880.9 kPa | 973.3
884.5 kPa | 973.3
887.3 kPa | 973.2
890.8 kPa | 973.2
894.6 kPa | 973.2
897.6 kPa | 973.2
900.3 kPa | 973.2
904 kPa | 973.3
906.8 kPa | 973.3
910.8 kPa | 973.3
913.5 kPa | 973.3
920.1 kPa | 973.2
926.9 kPa | 973.3
930.6 kPa | 973.3
933.3 kPa | 973.3
936.1 kPa | 973.2
940 kPa | 973.3
942.9 kPa | 973.4
947.1 kPa | 973.3
950.7 kPa | 973.3
953.5 kPa | 973.3
957 kPa | 973.4
960.8 kPa | 973.3
963.6 kPa | 973.4
968.1 kPa | 973.2
971.9 kPa | 973.2
975.6 kPa | 973.4
978.9 kPa | 973.4
983 kPa | 973.3
987 kPa | 973.3
991 kPa | 973.4
995 kPa | 973.4
999.9 kPa | 973.3
1003.3 kPa | 973.4
1007 kPa | 973.4
1011.7 kPa | 973.4
1016 kPa | 973.4
1062.4 kPa | 973.4
1065.9 kPa | 973.3
1069.5 kPa | 973.4
1073.9 kPa | 973.3
1077.3 kPa | 973.4
1082 kPa | 973.5
1085.7 kPa | 973.4
1090.4 kPa | 973.5
1094.2 kPa | 973.5
1099 kPa | 973.5
1103 kPa | 973.5
1128.6 kPa | 973.4
1132.2 kPa | 973.4
1137.1 kPa | 973.4
1140.7 kPa | 973.5
1145.6 kPa | 973.5
1149.6 kPa | 973.5
1154.3 kPa | 973.5
1159 kPa | 973.5
1163.8 kPa | 973.5
1243.7 kPa | 973.6
1248 kPa | 973.6
1253.4 kPa | 973.5
1258.3 kPa | 973.4
1263.5 kPa | 973.5
1269.2 kPa | 973.5
1273.9 kPa | 973.7
1278.6 kPa | 973.5
1284.5 kPa | 973.6
1289.2 kPa | 973.6
1294.7 kPa | 973.5
1299.6 kPa | 973.6
1305.5 kPa | 973.5
1310 kPa | 973.5
1315.4 kPa | 973.5
1319.9 kPa | 973.5
1325.8 kPa | 973.5
1331.7 kPa | 973.6
1411.8 kPa | 973.6

From the NIST ThermoML archive (doi:10.1021/je060271a)
